According to patent publication US11242361B2 (Proteostasis Therapeutics, Inc., priority 2013, dated 2022):

Target: USP14 (Homo sapiens (Human), UniProt P54578)
Experiment: USP14 Inhibition Assay
Assay type: biochemical
Conditions: average value from a minimum of two experimental determinations, read-out: IC50 Category
Method: Example 17: USP14 Inhibition Assay
“I” in the Table below designates an IC50 of >5 μM, “II” in the Table below designates and IC50 between 0.5 and 5 μM, and “III” designates an IC50<0.5 μM. The IC50 values in the Table below represent the average value from a minimum of two experimental determinations.

Chain of USP14 (P54578 whole entry, looked up): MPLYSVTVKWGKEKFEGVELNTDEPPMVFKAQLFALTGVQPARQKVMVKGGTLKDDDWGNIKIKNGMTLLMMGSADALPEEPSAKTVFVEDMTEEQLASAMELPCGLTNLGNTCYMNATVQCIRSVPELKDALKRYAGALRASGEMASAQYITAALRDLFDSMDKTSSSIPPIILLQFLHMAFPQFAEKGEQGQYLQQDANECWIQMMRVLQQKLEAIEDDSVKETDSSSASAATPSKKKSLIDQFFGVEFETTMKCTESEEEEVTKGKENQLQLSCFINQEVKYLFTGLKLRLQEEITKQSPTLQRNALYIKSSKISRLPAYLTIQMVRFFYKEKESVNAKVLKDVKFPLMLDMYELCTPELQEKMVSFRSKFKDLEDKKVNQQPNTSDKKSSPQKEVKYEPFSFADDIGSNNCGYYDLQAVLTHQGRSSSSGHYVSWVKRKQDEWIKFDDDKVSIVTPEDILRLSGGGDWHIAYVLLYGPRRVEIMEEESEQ

Row | Compound | IC50 [nM]
1 | Cc1c(C(=O)CN2CCCCC2)c2ccc(CN(C)C)cc2n1-c1ccc(Cl)cc1 [Compound 188, 1-(1-(4-chlorophenyl)-6-((Dimethylamino)methyl)-2-methyl-1H-indol-3-yl)-2-(piperidin-1-yl)ethan-1-one] | < 500
2 | Cc1c(C(=O)CN2CCCCC2)c2ncc(CCC(=O)NCCCN=[N+]=[N-])cc2n1-c1ccc(C#N)cc1 [Compound 299] | < 500
3 | Cc1c(C(=O)CN2CCCCC2)c2ccc(CN)cc2n1-c1ccc(Cl)cc1 [Compound 185, 1-(6-(Aminomethyl)-1-(4-chlorophenyl)-2-methyl-1H-indol-3-yl)-2-(piperidin-1-yl)ethan-1-one] | < 500
4 | CC(=O)OCCc1ccc2c(C(=O)CN3CCCCC3)c(C)n(-c3ccc(C#N)cc3)c2c1 [Compound 205, 2-(1-(4-Cyanophenyl)-2-methyl-3-(2-(piperidin-1-yl)acetyl)-1H-indol-6-yl)ethyl Acetate] | < 500
5 | Cc1c(C(=O)CN2CCN(C)CC2)c2ncc(Br)cc2n1-c1ccc(C#N)cc1 [Compound 330] | > 5000
6 | Cc1c(C(=O)CN2CCC(O)CC2)c2ncc(CCS(N)(=O)=O)cc2n1-c1ccc(Cl)cc1 [Compound 357, 2-(1-(4-Chlorophenyl)-3-(2-(4-hydroxypiperidin-1-yl)acetyl)-2-methyl-1H-pyrrolo[3,2-b]pyridin-6-yl)ethane-1-sulfonamide] | < 500
7 | COc1ccc2c(c1)c(C(=O)CN1CCCCC1)c(C)n2-c1ccc(Cl)cc1 [Compound 155] | < 500
8 | Cc1c(C(=O)CN2CCOCC2)c2ncc(Br)cc2n1-c1ccc(C#N)cc1 [Compound 329] | > 5000
9 | Cc1c(C(=O)CN2CCC(CN)CC2)c2ncc(Br)cc2n1-c1ccc(C#N)cc1 [Compound 354] | < 500
10 | Cc1c(C(=O)CN2CCCCC2)c2nc(-n3nccn3)ccc2n1-c1ccc(C#N)cc1 [Compound 208, 4-(2-Methyl-3-(2-(piperidin-1-yl)acetyl)-5-(2H-1,2,3-triazol-2-yl)-1H-pyrrolo[3,2-b]pyridin-1-yl)benzonitrile] | < 500
11 | Cc1c(C(=O)CN2CCCCC2)c2ccc(F)cc2n1-c1ccc(C#N)cc1 [Compound 176] | < 500
12 | CC(=O)Oc1ccc2c(C(=O)CN3CCCCC3)c(C)n(-c3ccc(Cl)cc3)c2c1 [Compound 172, 1-(4-Chlorophenyl)-2-methyl-3-(2-(piperidin-1-yl)acetyl)-1H-indol-6-yl Acetate] | < 500
13 | Cc1c(C(=O)CN2CCCCC2)c2ccc(CC(N)=O)cc2n1-c1ccc(C#N)cc1 [Compound 203, 2-(1-(4-Cyanophenyl)-2-methyl-3-(2-(piperidin-1-yl)acetyl)-1H-indol-6-yl)acetamide] | < 500
14 | Cc1c(C(=O)CN2CCCCC2)c2ccccc2n1-c1ccc([N+](=O)[O-])cc1 [Compound 164] | < 500
15 | CCOC(=O)CC1CCN(CC(=O)c2c(C)n(-c3ccc(C#N)cc3)c3cc(Br)cnc23)CC1 [Compound 365] | 500 to 5000
16 | Cc1c(C(=O)CN2CCC(N)CC2)c2ncc(Br)cc2n1-c1ccc(C#N)cc1 [Compound 367] | 500 to 5000
17 | Cc1c(C(=O)CN2CCC(O)CC2)c2ccccc2n1-c1ccc(C#N)cc1 [Compound 337] | < 500
18 | Cc1c(C(O)CN2CCCCC2)c2ccc(CO)cc2n1-c1ccc(Cl)cc1 (stereo not drawn) [Compound 130, 1-(1-(4-Chlorophenyl)-6-(hydroxymethyl)-2-methyl-1H-indol-3-yl)-2-(piperidin-1-yl)ethan-1-ol] | > 5000
19 | COc1cccc2c(C(=O)CN3CCCCC3)c(C)n(-c3ccc(C#N)cc3)c12 [Compound 146] | 500 to 5000
20 | Cc1c(C(=O)CN2CCCCC2)c2ccc(CO[Si](C)(C)C(C)(C)C)cc2n1-c1ccc(Cl)cc1 [Compound 153, 1-(6-(((tert-Butyldimethylsilyl)oxy)methyl)-1-(4-chlorophenyl)-2-methyl-1H-indol-3-yl)-2-(piperidin-1-yl)ethan-1-one] | 500 to 5000
21 | CCc1c(C(=O)CN2CCCCC2)c2ccccc2n1-c1ccc(Cl)cc1 [Compound 401] | 500 to 5000
22 | Cc1c(C(=O)CN2CCC(NC(=O)c3ccc(N=[N+]=[N-])cc3)CC2)c2ccccc2n1-c1ccc(Cl)cc1 [Compound 147] | 500 to 5000
23 | Cc1c(C(=O)CN2CCCC[C@@H]2C)c2ncc(Br)cc2n1-c1ccc(C#N)cc1 [Compound 308] | < 500
24 | Cc1c(C(=O)CN2CCC(O)CC2)c2ccccc2n1-c1ccncc1 [Compound 396] | > 5000
25 | Cc1c(C(=O)CN2CCC(F)(F)C2)c2ncc(Br)cc2n1-c1ccc(C#N)cc1 [Compound 324] | > 5000
26 | Cc1c(C(=O)CN2CCCCC2)c2nc(O)ccc2n1-c1ccc(C#N)cc1 [Compound 127, 4-(5-Hydroxy-2-methyl-3-(2-(piperidin-1-yl)acetyl)-1H-pyrrolo[3,2-b]pyridin-1-yl)benzonitrile] | > 5000
27 | Cc1c(C(=O)CN2CCC(O)CC2)c2ccccc2n1-c1ccc(Cl)nc1 [Compound 392] | 500 to 5000

Row | Compound | IC50 [nM]
28 | Cc1c(C(=O)CN2CCC(O)CC2)c2ncc(Br)cc2n1-c1ccc(C#N)cc1 [Compound 353] | < 500
29 | Cc1c(C(=O)CN2C[C@@H](C)C[C@H](C)C2)c2ncc(Br)cc2n1-c1ccc(C#N)cc1 [Compound 349] | < 500
30 | COc1cc2c(C(=O)CN3CCCCC3)c(C)n(-c3ccc(C#N)cc3)c2cc1OC(F)(F)F [Compound 193] | 500 to 5000
31 | Cc1c(C(=O)CN2CC[C@H](O)[C@H](O)C2)c2ncc(Br)cc2n1-c1ccc(C#N)cc1 [Compound 332] | < 500
32 | Cc1c(C(=O)CN2CCCCC2)c2ccc(CO)cc2n1-c1ccc(Cl)cc1 [Compound 182, 1-(1-(4-Chlorophenyl)-6-(hydroxymethyl)-2-methyl-1H-indol-3-yl)-2-(piperidin-1-yl)ethan-1-one] | < 500
33 | Cc1c(C(=O)CN2CCC(O)CC2)c2ccccc2n1-c1ccc(Cl)cn1 [Compound 398] | 500 to 5000
34 | CNc1ccc2c(c1)c(C(=O)CN1CCCCC1)c(C)n2-c1ccc(C#N)cc1 [Compound 199, 4-(2-Methyl-5-(methylamino)-3-(2-(piperidin-1-yl)acetyl)-1H-indol-1-yl)benzonitrile] | < 500
35 | Cc1c(C(=O)CN2CCCCC2)c2ccc(CCC(=O)O)cc2n1-c1ccc(C#N)cc1 [Compound 201, 3-(1-(4-Cyanophenyl)-2-methyl-3-(2-(piperidin-1-yl)acetyl)-1H-indol-6-yl)propanoic Acid] | < 500
36 | Cc1nc2c(C(=O)CN3CCCCC3)c(C)n(-c3ccc(C#N)cc3)c2cc1CCC(N)=O [Compound 210, 3-(1-(4-Cyanophenyl)-2,5-dimethyl-3-(2-(piperidin-1-yl)acetyl)-1H-pyrrolo[3,2-b]pyridin-6-yl)propanamide] | < 500
37 | Cc1c(C(=O)CN2CCC(O)CC2)c2ccccc2n1-c1ccc(C#N)nc1 [Compound 393] | 500 to 5000
38 | CCOC(=O)CC1CCCN(CC(=O)c2c(C)n(-c3ccc(C#N)cc3)c3cc(Br)cnc23)C1 (stereo not drawn) [Compound 366] | 500 to 5000
39 | Cc1c(C(=O)CN2CCSCC2)c2ncc(Br)cc2n1-c1ccc(C#N)cc1 [Compound 331] | < 500
40 | CCOc1cnc2c(C(=O)CN3CCC(O)CC3)c(C)n(-c3ccc(C#N)cc3)c2c1 [Compound 340] | < 500
41 | Cc1c(C(=O)CN2CCCCC2)c2ccc(CCC(N)=O)cc2n1-c1ccc(C#N)cc1 [Compound 194, 3-(1-(4-Cyanophenyl)-2-methyl-3-(2-(piperidin-1-yl)acetyl)-1H-indol-6-yl)propanamide] | < 500
42 | Cc1ccc2c(c1)c(C(=O)CN1CCCCC1)c(C)n2-c1ccc(Cl)cc1 [Compound 156] | < 500
43 | Cc1c(C(=O)CN2CCC(O)CC2)c2ccccc2n1-c1ncc(Cl)s1 [Compound 402] | > 5000
44 | Cc1c(C(=O)CN2CCC(CC(=O)O)CC2)c2ncc(Br)cc2n1-c1ccc(Cl)cc1 [Compound 371] | > 5000
45 | CCOC(=O)Cc1cnc2c(C(=O)CN3CCCCC3)c(C)n(-c3ccc(C#N)cc3)c2c1 [Compound 384, Ethyl 2-(1-(4-Cyanophenyl)-2-methyl-3-(2-(piperidin-1-yl)acetyl)-1H-pyrrolo[3,2-b]pyridin-6-yl)acetate] | < 500
46 | Cc1c(C(=O)CN2CCC(O)CC2)c2ccccc2n1-c1ncc(Cl)cn1 [Compound 400] | > 5000
47 | Cc1c(C(=O)CN2CCCCC2)c2ncc(CC(=O)N3CCCC3)cc2n1-c1ccc(C#N)cc1 [Compound 298, 4-(2-Methyl-6-(2-oxo-2-(pyrrolidin-1-yl)ethyl)-3-(2-(piperidin-1-yl)acetyl)-1H-pyrrolo[3,2-b]pyridin-1-yl)benzonitrile] | < 500
48 | Cc1c(C(=O)CN2CCCCC2)c2ccc(CN3C(=O)c4ccccc4C3=O)cc2n1-c1ccc(Cl)cc1 [Compound 152, 2-((1-(4-Chlorophenyl)-2-methyl-3-(2-(piperidin-1-yl)acetyl)-1H-indol-6-yl)methyl)isoindoline-1,3-dione] | 500 to 5000
49 | Cc1c(C(=O)CN2CCCCC2)c2ncc(C(F)F)cc2n1-c1ccc(C#N)cc1 [Compound 301, 4-(6-(Difluoromethyl)-2-methyl-3-(2-(piperidin-1-yl)acetyl)-1H-pyrrolo[3,2-b]pyridin-1-yl)benzonitrile] | < 500
50 | Cc1cnc2c(C(=O)CN3CCCC(F)C3)c(C)n(-c3ccc(C#N)cc3)c2c1 (stereo not drawn) [Compound 189] | < 500
51 | Cc1c(C(=O)CN2CCCCO2)c2ncc(Br)cc2n1-c1ccc(C#N)cc1 [Compound 345] | > 5000
52 | Cc1c(C(=O)CN2CCCCC2)c2ccc(O)cc2n1-c1ccc(Cl)cc1 [Compound 148, 1-(1-(4-Chlorophenyl)-6-hydroxy-2-methyl-1H-indol-3-yl)-2-(piperidin-1-yl)ethan-1-one] | 500 to 5000
53 | Cc1c(C(=O)CN2CCC(O)CC2)c2ccccc2n1-c1ccc(F)cc1 [Compound 389] | < 500
54 | 4-(2-Methyl-3-(2-(piperidin-1-yl)acetyl)-1H-indol-1-yl)benzonitrile [Compound 160] | < 500
